# Results reported in patent publication US20030204862A1, “Inbred embryonic stem-cell derived mice” (priority 2002, published 2003).
# Several values for one entry are separate records, joined by “and”; a condition that tells them apart may be missing. Equal entries are not always repeated.
# Tests used:
# C57BL/6 blastocysts = experiment: Derivation of ES cell lines from C57BL/6 blastocysts in medium with MEK inhibitor; format: cell-based, mouse; details: for Efficiency to derive ES lines / Number of established ES lines: C57BL/6, PD98059 50 then 25 micromolar, 18 blastocysts, UO126 10 then 4 micromolar, 40 blastocysts, 39° C; for higher efficiency of ES cell line derivation in the presence of the MEK inhibitor versus standard conditions: compared with standard conditions (Table 1)
# Description: ES cell derivation was essentially performed as described by Hogan et al. (Manipulating the mouse embryo, CSHL Press 1994, pp253-89), except that cell culture was performed at 39° C. instead of 37° C. C57BL/6 (Janvier, France), 129SvEv/Tac (Taconic M&B, Denmark) or C57BL/6-APCMin (Jackson Laboratories, USA) male and female mice were mated to obtain blastocysts from fertilized females. The C57BL/6-APCMin mouse strain harbours a spontaneous mutation in the APC tumor suppressor gene (Su L K et al (1992) Science 256:668-670) and provides a genetic model for human hereditary colon cancer. Plug positive females were set aside, and 3 days later blastocysts were isolated by flushing their uteri. The blastocysts were further cultured overnight in CZB medium (Chatot et al. (1990) Biol. Reprod. 42:432-440) and then transferred into 12-well tissue culture plates (1 blastocyst per well), precoated with a monolayer of Mitomycin-C inactivated primary mouse embryonic fibroblasts, in standard ES cell culture medium (“standard conditions”) (Torres and Kuehn, Laboratory protocols for conditional gene targeting, Oxford University Press 1997), or in standard medium supplemented with the MEK inhibitor PD 98059 (NEB Biolabs) (50 micromolar concentration, diluted from a 50 millimolar stock in DMSO stored at −20° C.) or with the MEK inhibitor UO126 (10 micromolar concentration; NEB Biolabs). These cultures were incubated in a tissue culture incubator (Heraeus) for 6 days at 39° C. in a 10% CO2 atmosphere. The outgrown inner cell mass of each blastocyst was isolated with a pipette tip under low power magnification, transferred into a 50 microliter drop of Trypsin solution and incubated at 39° C. for 5-10 minutes. This cell clump was further dissociated by pipetting, the cells were transferred into tissue culture dishes and further propagated at 39° C. using standard ES cell culture conditions (Torres and Kuehn 1997, supra), with and without PD98059 (50 micromolar) or UO126 (10 micromolar). After the initial establishment of ES cell lines propagated in the presence of PD98059 (6 days after the first dissociation) the concentration of PD98059 was reduced to 25 micromolar, the concentration of UO 126 was reduced to 4 micromolar, and the cells were further propagated. The C57BL/6 line Bruce4 (Kontgen et al, (1993) Int Immunol. 5:957-964) was grown under standard conditions at 37° C.
# (§1) The sex of the cell lines was determined through Southern blot hybridisation of genomic DNA using a detection probe (pY353) specific to a Y-chromosome specific repeat (Bishop C E and Hatat D. (1987) Nucleic Acids Res 15, 2959-2969).
# For the karyotype analysis of ES cell clones, 4×10^6 cells were cultured for 1 hour in the presence of 0.2 μg/ml Demicolchicin (Sigma), trypsinised, resuspended in a hypotonic (0.56%) KCl solution and incubated for 8 minutes at room temperature. The swollen cells were sedimented by centrifugation, resuspended in freshly prepared fixative (3:1 mixture of ethanol/glacial acetic acid) and subsequently washed 2 times in fixative. Finally, the cells were resuspended in 0.5 ml fixative and dropped on glass slides precleaned with ethanol/acetic acid (19/1). After air drying, the metaphase spreads were stained for 5 minutes in a 2% solution of Giemsa's stain (Merck), washed in water, and air-dried. The chromosome numbers of 20 suitable metaphase spreads were counted at 1000× magnification under oil immersion.
# C57BL/6 ES cell lines = experiment: ES mouse production by injection of C57BL/6 inbred ES cells into tetraploid blastocysts; format: in vivo; details: for Number of respirating pups / respirating pups efficiency: E 19.5; for Number of surviving pups / surviving pups efficiency: alive three days later
# Description: (§2) Production of mice by tetraploid embryo complementation has been previously described (Eggan et al. (2001) PNAS 98:6209-6214). Briefly, embryo culture was carried out in microdrops on standard bacterial petri dishes (Falcon) under mineral oil (Sigma). Modified CZB media (Chatot et al, Supra) was used for embryo culture unless otherwise noted. Hepes buffered CZB was used for room temperature operations. After administration of hormones, superovulated B6D2F1 females were mated with B6D2F1 males. Fertilized zygotes were isolated from the oviduct and any remaining cumulus cells were removed with hyluronidase. After overnight culture, two-cell embryos were electrofused to produce one cell tetraploid embryos using a CF150-B cell fusion instrument from BLS (Budapest, Hungary) according to the manufacturers instructions. Embryos that had not undergone membrane fusion within 1 hour were discarded. Embryos were then cultured in vitro to the blastocyst stage. For microinjection, 5-6 blastocysts were placed in a drop of DMEM with 15% FCS under mineral oil. A flat tip, piezo actuated microinjection-pipette with an internal diameter of 12-15 μm was used to inject 15 ES cells into each blastocyst. After recovery, ten injected blastocysts were transferred to each uterine horn of 2.5 days post coitum, pseudopregnant NMRI females that had been mated with vasectomized males. For cesarian derivation, recipient mothers were sacrificed at E 19.5 and pups were quickly removed. Newborns that were alive and respirating were cross-fostered to lactating females. Three days later, the litters were controlled, and pups alive by that time were counted as surviving pups.
# [1] = tested on: 129 ES cell lines (129S6/SvEvTac); experiment: ES mouse production by injection of 129 inbred ES cells into tetraploid blastocysts; format: in vivo; details: ES line ESAR-S6-PD.4 (129S6/SvEvTac) grown with PD98059, 335 injected tetraploid blastocysts
# Description: as §2
# [2] = tested on: undifferentiated ES cells; details: added to the culture medium; Burdon et al. (1999), WO 0015764; cited from earlier work
# [3] = tested on: C57BL/6 ES cell lines (Apcmin mutant or Rosa(lacZ) knock-in); experiment: Production of genetically engineered and mutant inbred ES mice by tetraploid blastocyst injection; format: in vivo, mouse; design: respirating pups efficiency: concentration or dose not given beside the values
# Description: as §2
# In order to generate inbred ES mice which harbour genetic alterations we pursued two different strategies. In the first protocol ES cell lines that were established and grown in media with UO 126 (see Example I) and which harbour the C57BL/6-APCMin mutation were injected into tetraploid blastocysts. […] In the second protocol the C57BL/6 ES cell line ESAR-B6-PD.4 was genetically modified in a predetermined manner through homologous recombination using a gene targeting vector. This vector (Rosa(lacZ) knock-in) introduces a beta-galactosidase reporter gene in conjunction with a selectable hygromycin resistance gene into the endogenous Rosa26 locus of the ES cell genome (Seibler et al., Nucleic Acids Res. 31, e12, 2003). This gene targeting vector was electroporated into ESAR-B6-PD4 cells exactly as described (Seibler et al., Nucleic Acids Res. 31, e12, 2003) and hygromycin resistant ES cell colonies were selected, isolated and further expanded. The genomic DNA of resistant colonies was isolated and tested by Southern blot analysis for the occurrence of a homologous recombination event in one of the Rosa26 alleles. Cells from one of the recombined ES cell clones (ESAR-B6-PD.4-R9 A-F2) was injected into tetraploid blastocysts.
# 129SvEv/Tac blastocysts = experiment: Derivation of ES cell lines from 129SvEv/Tac blastocysts in medium with MEK inhibitor; format: cell-based, mouse; details: PD98059 50 then 25 micromolar, 12 blastocysts, 39° C
# Description: ES cell derivation was essentially performed as described by Hogan et al. (Manipulating the mouse embryo, CSHL Press 1994, pp253-89), except that cell culture was performed at 39° C. instead of 37° C. C57BL/6 (Janvier, France), 129SvEv/Tac (Taconic M&B, Denmark) or C57BL/6-APCMin (Jackson Laboratories, USA) male and female mice were mated to obtain blastocysts from fertilized females. The C57BL/6-APCMin mouse strain harbours a spontaneous mutation in the APC tumor suppressor gene (Su L K et al (1992) Science 256:668-670) and provides a genetic model for human hereditary colon cancer. Plug positive females were set aside, and 3 days later blastocysts were isolated by flushing their uteri. The blastocysts were further cultured overnight in CZB medium (Chatot et al. (1990) Biol. Reprod. 42:432-440) and then transferred into 12-well tissue culture plates (1 blastocyst per well), precoated with a monolayer of Mitomycin-C inactivated primary mouse embryonic fibroblasts, in standard ES cell culture medium (“standard conditions”) (Torres and Kuehn, Laboratory protocols for conditional gene targeting, Oxford University Press 1997), or in standard medium supplemented with the MEK inhibitor PD 98059 (NEB Biolabs) (50 micromolar concentration, diluted from a 50 millimolar stock in DMSO stored at −20° C.) or with the MEK inhibitor UO126 (10 micromolar concentration; NEB Biolabs). These cultures were incubated in a tissue culture incubator (Heraeus) for 6 days at 39° C. in a 10% CO2 atmosphere. […]
# as §1
# (§3) For the karyotype analysis of ES cell clones, 4×10^6 cells were cultured for 1 hour in the presence of 0.2 μg/ml Demicolchicin (Sigma), trypsinised, resuspended in a hypotonic (0.56%) KCl solution and incubated for 8 minutes at room temperature. […] The chromosome numbers of 20 suitable metaphase spreads were counted at 1000× magnification under oil immersion.
# [4] = tested on: C57BL/6-APCMin blastocysts; details: UO126 10 then 4 micromolar, 33 blastocysts, 39° C
# Description: ES cell derivation was essentially performed as described by Hogan et al. (Manipulating the mouse embryo, CSHL Press 1994, pp253-89), except that cell culture was performed at 39° C. instead of 37° C. C57BL/6 (Janvier, France), 129SvEv/Tac (Taconic M&B, Denmark) or C57BL/6-APCMin (Jackson Laboratories, USA) male and female mice were mated to obtain blastocysts from fertilized females. The C57BL/6-APCMin mouse strain harbours a spontaneous mutation in the APC tumor suppressor gene (Su L K et al (1992) Science 256:668-670) and provides a genetic model for human hereditary colon cancer. Plug positive females were set aside, and 3 days later blastocysts were isolated by flushing their uteri. […]
# as §1, §3
# [5] = ES line ESAR-B6-PD.13 (C57BL/6J) grown with PD98059, 180 injected tetraploid blastocysts
# [6] = ES line ESAR-B6-PD.3 (C57BL/6J) grown with PD98059, 372 injected tetraploid blastocysts
# [7] = ES line ESAR-B6-PD.4 (C57BL/6J) grown with PD98059, 329 injected tetraploid blastocysts
# [8] = Sum of three C57BL/6 ES lines grown with PD98059, 881 injected tetraploid blastocysts
# [9] = Rosa(lacZ) knock-in ES clone ESAR-B6-PD.4 R9 B-G12 (C57BL/6 J) with PD98059, 162 injected tetraploid blastocysts
# [10] = ES line ESAR-APC 3 UO (C57BL/6 J Apcmin) grown with UO126, 405 injected tetraploid blastocysts
# [11] = ES line ESAR-APC 9 UO (C57BL/6 J Apcmin) grown with UO126, 228 injected tetraploid blastocysts
# [12] = Sum of two C57BL/6 J Apcmin ES lines grown with UO126, 633 injected tetraploid blastocysts
structure (smiles),measurement,setting,value
"COc1cccc(-c2cc(=O)c3ccccc3o2)c1N [PD98059, 2′-amino-3′-methoxyflavone]",Efficiency to derive ES lines,C57BL/6 blastocysts,61%
same,Number of established ES lines,C57BL/6 blastocysts,11
same,Efficiency to derive ES lines,C57BL/6 blastocysts; listed as PD 98059,61%
same,higher efficiency of ES cell line derivation in the presence of the MEK inhibitor versus standard conditions,C57BL/6 blastocysts,5 fold
same,Number of respirating pups,C57BL/6 ES cell lines; [5],4
same,respirating pups efficiency,C57BL/6 ES cell lines; [5],2.22%
same,Number of surviving pups,C57BL/6 ES cell lines; [5],0
same,surviving pups efficiency,C57BL/6 ES cell lines; [5],0.00%
same,Number of respirating pups,C57BL/6 ES cell lines; [6],8
same,respirating pups efficiency,C57BL/6 ES cell lines; [6],2.15%
same,Number of surviving pups,C57BL/6 ES cell lines; [6],1
same,surviving pups efficiency,C57BL/6 ES cell lines; [6],0.27%
same,Number of respirating pups,C57BL/6 ES cell lines; [7],11
same,respirating pups efficiency,C57BL/6 ES cell lines; [7],3.34%
same,Number of surviving pups,C57BL/6 ES cell lines; [7],4
same,surviving pups efficiency,C57BL/6 ES cell lines; [7],1.22%
same,Number of respirating pups,C57BL/6 ES cell lines; [8],23
same,respirating pups efficiency,C57BL/6 ES cell lines; [8],2.6% and 2.61%
same,Number of surviving pups,C57BL/6 ES cell lines; [8],5
same,surviving pups efficiency,C57BL/6 ES cell lines; [8],0.57%
same,Number of respirating pups,[1]; E 19.5,29
same,respirating pups efficiency,[1]; E 19.5,8.66%
same,Number of surviving pups,[1]; alive three days later,15
same,surviving pups efficiency,[1]; alive three days later,4.48%
same,effect on growth of undifferentiated ES cells,[2],enhances the growth of undifferentiated ES cells
same,Number of respirating pups,[3]; [9],4
same,respirating pups efficiency,[3]; [9],2.47%
same,Efficiency to derive ES lines,129SvEv/Tac blastocysts,75%
same,Number of established ES lines,129SvEv/Tac blastocysts,9
same,Efficiency to derive ES lines,129SvEv/Tac blastocysts; listed as PD 98059,75%
"N#CC(=C(/N)Sc1ccccc1N)/C(C#N)=C(/N)Sc1ccccc1N [UO126, bis[amino[(2-aminophenyl)thio]methylene]butanedinitrile]",Efficiency to derive ES lines,C57BL/6 blastocysts,80%
same,Number of established ES lines,C57BL/6 blastocysts,32
same,Efficiency to derive ES lines,C57BL/6 blastocysts; listed as UO 126,80%
same,higher efficiency of ES cell line derivation in the presence of the MEK inhibitor versus standard conditions,C57BL/6 blastocysts,5 fold
same,Efficiency to derive ES lines,[4],36%
same,Number of established ES lines,[4],12
same,Number of respirating pups,[3]; [10],11
same,respirating pups efficiency,[3]; [10],2.72%
same,Number of respirating pups,[3]; [11],1
same,respirating pups efficiency,[3]; [11],0.44%
same,Number of respirating pups,[3]; [12],12
same,respirating pups efficiency,[3]; [12],1.90%
same,respirating pups efficiency,"[3]; Sum of two C57BL/6 J Apcmin ES lines grown with UO126, 633 injected tetraploid blastocysts, listed as UO 126",1.9%
